Measurements: publication PMC4884932, “Selective brain penetrable Nurr1 transactivator for treating Parkinson's disease” (Oncotarget, 2016)

Columns and labels:
[1] = test system: primary VMB neurons; experiment: Nurr1 downstream gene expression in VMB neurons (real time PCR); assay type: cell-based, mouse; conditions: HX531 100nM with 1nM IRX4204
Method: (§1) Ventral midbrain (VMB) from E13.5-14.5 C57BL/6 mouse embryos were dissected, triturated and plated on poly-D-lysine coated 12 well plates or glass coverslips with the serum-free chemically-defined Neurobasal medium, supplemented with 2% B27, 0.5mM L-glutamine, 50I.U./ml penicillin and 50μg/ml streptomycin (Gibco-BRL). […] For each time point, cells were washed once with phosphate buffered saline and fixed with 4% paraformaldehyde for TH immunofluorescent staining. For cell counting, 10 frames were randomly captured from each well using a Leica fluorescent microscope and a minimum of four replicates for each dose and each time point were analyzed for each experiment.
Total RNA from VMB neurons or rat substantia nigra were isolated using the RNeasy Mini Kit from Qiagen (Valencia, CA) and 1μg of total RNA was reverse transcribed using SuperScript III first-strand synthesis supermix for qRT-PCR from Invitrogen (Carlsbad, CA) according to the manufacturer's instruction. Quantitative RT-PCR was performed using Maxima SYBR Green master mix (Fermentas) in ABI Prism 7900HT in four replicates with primers amplifying the target genes. Expression level of actin was used as an internal control. Data were normalized using the 2^−ΔΔCt method. Levels of target gene mRNAs were expressed relative to those in vehicle control groups and plotted in GraphPad Prism.

[2] = test system: tyrosine hydroxylase (TH)-positive DA neurons; experiment: DA neuron survival in primary ventral midbrain (VMB) culture; assay type: cell-based, mouse; conditions: co-treatment with IRX4204
Method: as §1

In the case of `CN1c2ccc([N+](=O)[O-])cc2N=C(c2ccc(C(=O)O)cc2)c2cc3c(cc21)C(C)(C)CCC3(C)C` [HX531, reference compound], the “effect on IRX4204-mediated increased expression of DAT” value [1] was “totally abolished”, the “effect on IRX4204-mediated increased expression of DDC” value [1] was “totally abolished” and the “effect on IRX4204-promoted survival of TH-positive DA neurons” value [2] was “completely blocked”.
